# Experimental data as given in US12396992B2, “Organic compounds” (INTRA-CELLULAR THERAPIES, INC., priority 2019, dated 2025).
# “Also recorded” adds a separate entry of the source.
# Legend:
# [1] = test system: BV2 cells; test: ADP-induced chemotaxis of BV2 cells in Boyden chamber; format: cell-based, mouse; conditions: 100 μM ADP, 4 hrs
# Experimental: Chemotaxis towards 100 μM ADP was measured in a Boyden chamber system for 4 hrs against a vehicle control. BV2 cells were added to the upper chamber of a 5 μm pore Boyden chamber with 100 μM ADP or vehicle in the lower chamber and incubated at 37′C with 5% CO2 for 4 hours. The curve was fit to a 4-parameter logarithmic equation with the following constraints: top >80% and bottom <20%. […] As shown in the left panel of FIG. 7A, raw fluorescence counts (relative fluorescence units or RFU), representing the cell count in the lower chamber, were used to calculate control conditions. The Vehicle condition represents the minimum migration, in which there was no ADP present. The maximum migration was shown as the 100 μM ADP condition.
# The measured potency correlates with documented IC50 values.
# [2] = target: P2Y12 (Homo sapiens, UniProt Q9H244); conditions: P2Y12 inhibitors; read-out: documented IC50; cited from earlier work
# Sequence of P2Y12 (Q9H244 whole entry, species assumed): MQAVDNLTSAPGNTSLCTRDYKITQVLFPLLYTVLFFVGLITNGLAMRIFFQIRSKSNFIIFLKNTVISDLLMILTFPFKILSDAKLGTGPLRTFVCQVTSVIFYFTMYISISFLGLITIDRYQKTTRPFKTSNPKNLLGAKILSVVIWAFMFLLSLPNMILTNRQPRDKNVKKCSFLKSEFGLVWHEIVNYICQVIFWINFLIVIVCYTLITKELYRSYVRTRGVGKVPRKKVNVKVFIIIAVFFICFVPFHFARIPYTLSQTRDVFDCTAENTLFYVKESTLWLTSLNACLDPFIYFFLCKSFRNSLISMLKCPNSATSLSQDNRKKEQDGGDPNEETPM
# [3] = test system: BV2 cells; test: Quantitative PCR of inflammatory cytokine mRNA in LPS-stimulated BV2 cells; format: cell-based, mouse; conditions: for LPS-induced expression of Ccl2 / LPS-induced expression of IL1β / LPS-induced expression of TNFα: FIG. 3a; for Chemokine (C—C) motif Ligand 2 expression / Interleukin 1 beta expression / Tumor necrosis factor expression: BV2 + LPS, Q-PCR, initial results
# Experimental: Levels of IL1 are measured using quantitative PCR of IL1β mRNA. IL1β is considered a marker of inflammation. Results are depicted in FIG. 2 (RQ: relative quantification of changes in gene expression in treated versus control samples; ***p<0.01 vs control, √p<0.01 vs LPS alone; ANOVA with Newman-Keuls post-hoc test).
# BV2 cells are pretreated with compound, ITI-214 or rolipram, a PDE4 inhibitor, then stimulated with 50 ng/ml LPS for 4 hours. Expression levels of TNF, IL1β, Ccl2, and IL6 are measured. Normalized mRNA levels are shown as change from vehicle (ΔΔCt) and compared using a one-way ANOVA. […] The mRNA transcripts for TNF, IL1β, and Ccl2—three of the four cytokines studied in vivo—were elevated in BV2 cells treated with 50 ng/ml LPS.
# (§1) The test compound is added first, the LPS is added one hour later, and the cells and/or media are harvested at five hours from commencement of the experiment.
# Cells: BV2 mouse microglial cell line (ICLC, Italy) grown in 2% or 10% heat-inactivated FBS.
# (§2) RTqPCR: RNA from BV2 cells purified using RNeasyKit (Qiagen) and from mouse tissue using TRIzol (Ambion). TaqMan primer-probe assays from Thermo Fisher. mRNA levels for all conditions are normalized to GAPDH and to vehicle control (ΔΔCt). Data are analyzed statistically using one-way ANOVA with the Bonferroni post-test for multiple comparisons.
# [4] = test system: BV2 cells; test: LPS-induced TNFα release from BV2 cells (ELISA); format: cell-based, mouse; conditions: 50 ng/ml LPS stimulation, FIG. 4
# Experimental: TNFα release: TNFα levels are measured in BV2 conditioned media and normalized to cell protein levels. Inhibition of LPS-induced TNFα release from BV2 cells is depicted in FIG. 4.
# as §1
# TNFα ELISA: Thermo Fisher mouse TNFα colorimetric, sandwich ELISA kit. Interpolate values from standard curve. Dose response is fit to a 4-parameter logistic curve.
# [5] = test system: mouse striatum; test: LPS-induced inflammatory gene expression in mouse striatum (Q-PCR); format: in vivo
# Experimental: as §2
# Data from yet another experiment measuring the effect of PDE1 inhibition on inflammatory gene expression in mouse striatum is depicted in FIG. 6. […] Striatal tissue is analyzed for mRNA levels of TNF, IL1β, Ccl2, and IL6. Expression levels are shown as change in Q-PCR signal from vehicle (ΔΔCt) and compared using an ANOVA. * p<0.05, **p<0.01, ***p<0.001.
# The Applicants measure mRNA levels of four common inflammatory markers (TNF, IL1β, Ccl2, and IL6) using quantitative PCR (FIG. 7).
# [6] = test system: BV2 cells; test: cAMP (ELISA) and P-VASP S157 (Western blot) in BV2 cells with ADP; format: cell-based, mouse; conditions: for P-VASP level at baseline / cAMP level at baseline: no ADP stimulation
# Experimental: Cell lysates on a Western were blotted with an antibody to phosphorylated VASP at S157, and the intensity of the resulting bands were measured (as raw signal). […] There was no effect of PDE1 inhibition at baseline, consistent with the hypothesis that PDE1 is important under conditions of stimulation. […] As with cAMP, PDE1 activity (sensitive to ITI-214) appears to contribute about 50% to the total PDE activity (sensitive to IBMX) under conditions of stimulation while having no contribution at baseline. The dose dependent nature of the increase in cAMP is illustrated in FIG. 9.
# [7] = test system: primary cultured microglia; test: VASP phosphorylation in primary cultured rat microglia; format: cell-based; conditions: 1 μM
# Experimental: The above results were replicated in primary cultured microglia isolated from P2 rat whole brain (FIG. 10). Microglia were grown in culture for 12 days in serum-free media containing TGFb2, IL34, and cholesterol. The cells maintained properties in culture consistent with quiescent microglial-like cells, staining positive for Iba1 and maintaining a branched morphology.
# [8] = test system: CT26 colorectal carcinoma cells; test: CT26 colorectal carcinoma engrafted subcutaneously in mice; format: in vivo, mouse; conditions: for number of macrophages (CD45 positive) in the tumor microenvironment: 50 mg/kg, i.p., once daily
# Experimental: Mice were engrafted subcutaneously with CT26 colorectal carcinoma cells. Control mice were administered 150 μg IgG (Isotype).
# [9] = test system: BV2 cells; test: Quantitative PCR of inflammatory cytokine mRNA in LPS-stimulated BV2 cells; format: cell-based, mouse; conditions: LPS 10 microgram/ml, Compound 214 10 microgram/ml, FIG. 2
# [10] = test system: mouse striatum; test: LPS-induced inflammatory gene expression in mouse striatum (Q-PCR); format: in vivo; conditions: initial results
# [11] = target: T1, bovine brain PDE1 (Bos taurus, UniProt Q01061); test: IMAP phosphodiesterase assay, PDE1; format: biochemical
# T1 construct: IC50; other: bovine brain PDE1; Ki; other: bovine brain PDE1 assay
# T1 sequence (Q01061 whole entry): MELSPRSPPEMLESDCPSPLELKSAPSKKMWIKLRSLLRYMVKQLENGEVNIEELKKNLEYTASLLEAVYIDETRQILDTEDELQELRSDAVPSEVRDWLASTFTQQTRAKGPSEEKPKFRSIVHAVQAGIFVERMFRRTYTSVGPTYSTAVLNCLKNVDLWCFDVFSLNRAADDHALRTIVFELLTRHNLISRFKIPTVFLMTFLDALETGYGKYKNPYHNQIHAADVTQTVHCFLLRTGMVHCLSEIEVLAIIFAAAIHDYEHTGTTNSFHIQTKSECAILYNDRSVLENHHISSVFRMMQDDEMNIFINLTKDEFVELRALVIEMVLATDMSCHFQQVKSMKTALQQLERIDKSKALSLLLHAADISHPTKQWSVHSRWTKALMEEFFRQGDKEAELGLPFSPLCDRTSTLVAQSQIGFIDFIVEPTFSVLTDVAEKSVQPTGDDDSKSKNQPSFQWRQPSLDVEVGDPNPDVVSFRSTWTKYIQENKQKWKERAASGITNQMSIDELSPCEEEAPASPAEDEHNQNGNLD
# From the text: Briefly, the IMAP reagent binds with high affinity to the free 5′-phosphate that is found in GMP-fluorescein and not in cGMP-fluorescein. The resulting GMP-fluorescein-IMAP complex is large relative to cGMP-fluorescein. Small fluorophores that are bound up in a large, slowly tumbling, complex can be distinguished from unbound fluorophores, because the photons emitted as they fluoresce retain the same polarity as the photons used to excite the fluorescence.
# The PDE1 enzyme is reconstituted with 50% glycerol to 2.5 U/ml. […] The compounds are mixed and pre-incubated with the enzyme for 10 min at room temperature.
# The reaction is incubated in dark at room temperature for 15 min.
# [12] = test system: HL60 cells; test: cGMP levels in PMA-differentiated HL60 cells with ANP and ionomycin (competitive ELISA); format: cell-based, human
# Experimental: We have shown that there is a synergistic effect between ANP and PDE1 inhibition. An immortalized human pro-myeloid cell line (HL60 from ATCC) is grown, differentiated and harvested as described in Bender, A T, and Beavo, J A, 2006, PNAS 103, 460-465. The cells are grown in HEPES buffered RPMI 1640 medium with penicillin, streptomycin, and 10% fetal bovine serum. Phorbol-12-myristate-13-acetate (PMA), at 100 nM for 3 days, is used to differentiate the HL60 cells into macrophage-like cells. Following differentiation, the cells are incubated with a PDE1 inhibitor or vehicle (DMSO) beginning at time 0. At 40 minutes, 5 μM ionomycin (a calcium ionophore) is added. At 50 minutes, 100 nM ANP was added. At 60 minutes, the cells are harvested. Total cGMP levels are measured using a competitive ELISA (Bender and Beavo, 2006).
# [drawing 33] is tested for its effect on cGMP levels in this system. […] In addition, the cGMP level attained by co-treatment with ANP and the PDE1 inhibitor is much greater than that obtained by co-treatment with ANP and a mixed PDE1/PDE5 inhibitor, SCH 51866 (used at 5 μM). In this experiment, the calcium ionophore ionomycin (used at 5 μM) is used to raise the intracellular calcium level and to counteract the cGMP rise induced by ANP.
# [13] = 10 μM, 50 ng/ml LPS for 4 hours, FIG. 3b
# [14] = 10 mg/kg i.p., 500 μg/kg LPS s.c., 2 hours
# [15] = 10 mg/kg i.p., 500 μg/kg LPS s.c., 2 hours, does not reach significance
# [16] = Striatum Mouse + LPS, Q-PCR, initial results
compound,measurement,setting,value
"CCCSc1nc(N)c2ncn([C@@H]3O[C@H](COP(=O)(O)OP(=O)(O)C(F)(F)P(=O)(O)O)[C@@H](O)[C@H]3O)c2n1 [AR-C 66096, reference compound]",chemotaxis of BV2 cells toward ADP,[1],inhibited ADP induced migration
same,IC50,[2],6.9 nM
"CSCCNc1nc(SCCC(F)(F)F)nc2c1ncn2[C@@H]1O[C@H](COP(=O)(O)OP(=O)(O)C(Cl)(Cl)P(=O)(O)O)[C@@H](O)[C@H]1O [AR-C 69931, reference compound]",chemotaxis of BV2 cells toward ADP,[1],inhibited ADP induced migration
CN1C(=O)c2c(nn(Cc3ccc(-c4cccc(F)n4)cc3)c2Nc2ccccc2)N2C1=N[C@@H]1CCC[C@@H]12 [Compound 214],Ccl2 mRNA signal,[3]; [13],significantly decreased
same,IL1β mRNA signal,[3]; [13],trended downward
same,TNF mRNA signal,[3]; [13],significantly decreased
same,LPS-induced expression of Ccl2,[3]; 10 μM,significantly reduces
same,LPS-induced expression of IL1β,[3]; 10 μM,significantly reduces
same,LPS-induced expression of TNFα,[3]; 10 μM,significantly reduces
same,Chemokine (C—C) motif Ligand 2 expression,[3],Down
same,Interleukin 1 beta expression,[3],Down
same,Tumor necrosis factor expression,[3],Down
same,LPS-induced TNFα release,[4],dose-dependent inhibition
same,striatal mRNA expression of Ccl2,[5]; [14],attenuates
same,striatal mRNA expression of TNF,[5]; [14],attenuates
same,LPS-induced inflammatory gene expression changes in mice,"[5]; 10 mg/kg i.p., 500 μg/kg LPS s.c., 2 hours, FIG. 6",prevents
same,striatal mRNA level of IL1-beta,[5]; [15],trended to lower levels
same,striatal mRNA level of IL6,[5]; [15],trended to lower levels
same,Chemokine (C—C) motif Ligand 2 expression,[5]; [16],Down
same,chemotaxis of BV2 cells toward ADP,[1],inhibits
same,chemotaxis of BV2 cells toward ADP,[1]; listed as compound 214,reduced chemotaxis of BV2 cells toward 100 μM ADP in a dose-dependent manner
same,ADP-induced elevation in cAMP,"[6]; 30 min pretreatment, ADP for 5 minutes, ELISA",significantly augmented
same,ADP-induced P-VASP at serine 157,"[6]; 30 min pretreatment, ADP for 5 minutes, Western blot",significantly augmented
same,P-VASP level at baseline,[6],no effect
same,cAMP level at baseline,[6],no effect
same,VASP phosphorylation under basal conditions,[7],little effect
same,increase in VASP phosphorylation after ADP,[7]; 100 μM ADP for 5 mins,significantly enhanced
same,percentage of responders (tumor volume <500 mm3),"[8]; 1 mg, 5 days a week starting at day 7, alone",increase
same,number of macrophages (CD45 positive) in the tumor microenvironment,[8]; alone,significantly reduced
same,number of macrophages (CD45 positive) in the tumor microenvironment,[8]; in combination with an anti-PD1 antibody,significantly reduced
same,percentage of responders (tumor volume <500 mm3),"[8]; in combination with 150 μg Anti-PD-1 (RMP1-14) on days 7, 11, 14, 17",increase
same,LPS-induced increase in expression of IL1β mRNA,[9],significantly blunts; also recorded: suppresses
same,Oncostatin M expression,[10],Down
"CN1C(=O)c2c(nn(Cc3ccc(C(F)(F)F)cc3)c2Nc2ccccc2)N2C1=N[C@@H]1CCC[C@@H]12 [Example 20 of U.S. Pat. No. 8,273,750, (6aR,9aS)-3-(phenylamino)-5,6a,7,8,9,9a-hexahydro-5-methyl-2-(4-(trifluoromethyl)-benzyl)-cyclopent[4,5]imidazo[1,2-a]pyrazolo[4,3-e]pyrimidin-4(2H)-one]",Ki,[11],0.68 nM
same,cGMP level induced in HL60 cells,"[12]; 100 nM ANP + 100 nM PDE1 inhibitor, compared with ANP alone or inhibitor alone",greater than that induced by either the ANP alone or the PDE1 inhibitor alone
same,effect of ionomycin on cGMP,[12]; 5 μM ionomycin combined with ANP and the PDE1 inhibitor,only a weak cGMP lowering effect
same,cGMP level attained by co-treatment with ANP,[12]; compared with co-treatment with ANP and SCH 51866 (5 μM),much greater
"CC(C)Cn1c(=O)n(C)c(=O)c2[nH]cnc21 [IBMX, reference compound]",P-VASP level at baseline,[6],did elevate
same,cAMP level at baseline,[6],did elevate
"COc1ccc(C2CNC(=O)C2)cc1OC1CCCC1 (centres unmarked) [rolipram, reference compound]",LPS-induced expression of Ccl2,[3]; 10 μM,reducing
same,LPS-induced expression of IL1β,[3]; 10 μM,increasing
same,LPS-induced expression of TNFα,[3]; 10 μM,reducing
same,Chemokine (C—C) motif Ligand 2 expression,[3],Down
same,Interleukin 1 beta expression,[3],UP UP
same,Tumor necrosis factor expression,[3],Down
same,Chemokine (C—C) motif Ligand 2 expression,[5]; [16],Down
same,Interleukin 1 beta expression,[5]; [16],UP-UP
same,Interleukin 6 expression,[5]; [16],UP-UP
same,Tumor necrosis factor expression,[5]; [16],Down
same,Oncostatin M expression,[10],Down
